ChEMBL document CHEMBL1201862, “PubChem BioAssay data set” (2004)
Calls of active or inactive are those of the source.

Assays:
Escherichia coli = experiment: microbe, parasite or virus in culture
[1] = biological target: Mitogen-activated protein kinase 10 (Homo sapiens, UniProt P53779); experiment: Dose response biochemical screening assay for inhibitors of c-Jun N-Terminal Kinase 3 (JNK3). [Related pubchem assays: 746 ]
A-375 [2] = experiment: MITF: Counter assay: A375 proliferation Measured in Cell-Based System Using Plate Reader - 2084-03_Inhibitor_Dose_DryPowder_Activity. [Related pubchem assays (depositor defined):AID488944]; format: functional; settings: Homo sapiens
A-375 [3] = experiment: proliferation inhibition in MITF-low A375 cells – cell-based, cherry-pick samples, set 2, counter-screen for MITF modulator project, dose response (AID 540335); format: functional; settings: Homo sapiens
CAAX prenyl protease 2 = CAAX prenyl protease 2 (Homo sapiens, UniProt Q9Y256); experiment: inhibition of Ras-converting CAAX protease Rce1 – biochemical, yeast membranes, quenched-peptide fluorescence, cherry-pick, dose response (AID 588849)
Caspase-6 = biological target: T1, Caspase-6 (Homo sapiens, UniProt P55212); experiment: inhibition of CASP6 peptide cleavage – biochemical, VEID-R110 fluorescence, cherry-pick, dose response (AID 720632)
T1 sequence (P55212 whole entry): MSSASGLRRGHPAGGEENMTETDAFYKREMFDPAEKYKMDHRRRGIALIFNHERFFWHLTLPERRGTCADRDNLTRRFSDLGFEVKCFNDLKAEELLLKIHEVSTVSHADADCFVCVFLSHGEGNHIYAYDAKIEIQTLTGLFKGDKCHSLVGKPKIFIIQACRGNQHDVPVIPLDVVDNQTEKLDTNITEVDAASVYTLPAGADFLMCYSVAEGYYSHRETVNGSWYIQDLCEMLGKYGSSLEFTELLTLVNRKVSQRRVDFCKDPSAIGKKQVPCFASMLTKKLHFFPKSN

Vero = experiment: mammalian cell viability reduction – secondary assay, cytotoxicity control for West Nile virus antiviral project, dose response (AID 1650); format: functional; settings: Chlorocebus sabaeus
[4] = Trypanosoma cruzi growth suppression in host cells – NIH3T3 host cells, beta-gal luminescence, confirmation (AID 2044); format: functional, cell-based;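 further: intracellular parasites grown in NIH/3T3 mouse fibroblasts as host cells; luminescent beta-galactosidase reporter signal from transgenic T. cruzi replicating inside host cells; inhibitors lower the luminescence signal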
[5] = NIH3T3 cell viability loss – ATP luminescence, mouse fibroblasts, counter-screen, dose response (AID 2010); format: functional, cell-based;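 further: cells exposed to compound for about 90 hours before reading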
[6] = biological target: DNA damage-inducible transcript 3 protein (Mus musculus, UniProt P35639); format: functional, Cricetulus griseus
Cysteine protease ATG4B = biological target: T2, Cysteine protease ATG4B (Homo sapiens, UniProt Q9Y4P1); format: functional;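 further: Fluorescence-based dose-response confirmation assay measuring inhibition of ATG4B activity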
T2 sequence (Q9Y4P1 whole entry): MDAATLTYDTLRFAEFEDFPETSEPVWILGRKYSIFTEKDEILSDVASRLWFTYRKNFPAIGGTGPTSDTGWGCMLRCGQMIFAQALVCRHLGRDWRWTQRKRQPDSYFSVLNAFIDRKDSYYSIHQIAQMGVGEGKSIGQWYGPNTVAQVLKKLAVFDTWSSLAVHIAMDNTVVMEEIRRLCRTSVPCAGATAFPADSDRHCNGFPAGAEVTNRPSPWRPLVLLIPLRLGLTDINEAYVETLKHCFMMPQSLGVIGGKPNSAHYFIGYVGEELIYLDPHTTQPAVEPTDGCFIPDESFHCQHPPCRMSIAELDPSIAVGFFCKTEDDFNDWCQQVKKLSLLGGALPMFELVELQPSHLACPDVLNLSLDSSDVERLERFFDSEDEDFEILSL

X-box-binding protein 1 = X-box-binding protein 1 (Homo sapiens, UniProt P17861); format: functional, Cricetulus griseus;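 further: confirmatory dose-response counter-screen serving a CHOP assay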
Phospholipase A2 = Phospholipase A2 (Homo sapiens, UniProt P04054); format: functional;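 further: confirmatory dose-response counterscreen on phospholipase A2, testing hits that came from an ultra-high-throughput screen for ATG4B inhibitors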
[7] = biological target: Delta-type opioid receptor (Homo sapiens, UniProt P41143); experiment: Counterscreen for agonists of heterodimerization of the mu 1 (OPRM1) and delta 1 (OPRD1) opioid receptors: Luminescence-based cell-based high throughput dose response assay to identify agonists of OPRD1 homodimerization. [Related pubchem assays (depositor defined):AID504326, AID504355, AID504692, AID504904, AID504905]; format: functional
Mu-type opioid receptor = Mu-type opioid receptor (Homo sapiens, UniProt P35372); experiment: Counterscreen for agonists of heterodimerization of the mu 1 (OPRM1) and delta 1 (OPRD1) opioid receptors: Luminescence-based cell-based high throughput dose response assay to identify agonists of OPRM1 homodimerization.; format: functional;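 further: U2OS cells expressing OPRM1 and beta-arrestin as split beta-galactosidase partners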
[8] = biological target: 5-hydroxytryptamine receptor 5A (Homo sapiens, UniProt P47898); experiment: Counterscreen for agonists of OPRM1-OPRD1 heterodimerization: luminescence-based cell-based high throughput dose response assay to identify agonists of 5-hydroxytryptamine (serotonin) 5A receptor (HTR5A). [Related pubchem assays (depositor defined):AID504326, AID504355, AID504692, AID504904, AID504905]; format: functional
[9] = activation of miR-122 Renilla sensor silencing – cell-based, Huh7 psiCHECK-miR122, Renilla luciferase, cherry-picked, dose response (AID 651956); format: functional;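 further: huh7 hepatoma cells stably carrying a psiCHECK-2 miR-122 sensor plasmid; renilla luciferase signal reporting endogenous miR-122 activity after 48 h compound exposure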
[10] = general mammalian cell viability loss – inhibitor set, cherry-pick, set 2, cytotoxicity control for miR-122 modulator project, dose response (AID 720697); format: functional, cell-based
[11] = general mammalian cell viability loss – activator set, cherry-pick, cytotoxicity control for miR-122 modulator project, dose response (AID 720690); format: functional, cell-based;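 further: HEK293T human cells scored for general mammalian cytotoxicity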
[12] = microbe, parasite or virus in culture; format: functional; settings: Mycobacterium tuberculosis
Jurkat = experiment: blockers of NF-kB activation in T cells – Jurkat, luciferase reporter, luminescence, B- and T-cell, dose response (AID 489004); format: functional, cell-based; settings: Homo sapiens;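 further: NF-kB luciferase reporter Jurkat cells stimulated with PMA plus ionomycin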
[13] = HEK-293T viability loss, compound-treated – cell-based, uHTS hits, cytotoxicity control for B/T-cell NF-kB inhibitor project, dose response (AID 489019); format: functional;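 further: IC50 reflects cytotoxicity as loss of cell viability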
[14] = biological target: T3, Replicative DNA helicase DnaB (Mycobacterium tuberculosis, UniProt P9WMR3); experiment: DnaB intein splicing inhibitors, dose response, biochemical, cell-free fluorescence (AID 449749); format: functional
T3 sequence (P9WMR3 whole entry): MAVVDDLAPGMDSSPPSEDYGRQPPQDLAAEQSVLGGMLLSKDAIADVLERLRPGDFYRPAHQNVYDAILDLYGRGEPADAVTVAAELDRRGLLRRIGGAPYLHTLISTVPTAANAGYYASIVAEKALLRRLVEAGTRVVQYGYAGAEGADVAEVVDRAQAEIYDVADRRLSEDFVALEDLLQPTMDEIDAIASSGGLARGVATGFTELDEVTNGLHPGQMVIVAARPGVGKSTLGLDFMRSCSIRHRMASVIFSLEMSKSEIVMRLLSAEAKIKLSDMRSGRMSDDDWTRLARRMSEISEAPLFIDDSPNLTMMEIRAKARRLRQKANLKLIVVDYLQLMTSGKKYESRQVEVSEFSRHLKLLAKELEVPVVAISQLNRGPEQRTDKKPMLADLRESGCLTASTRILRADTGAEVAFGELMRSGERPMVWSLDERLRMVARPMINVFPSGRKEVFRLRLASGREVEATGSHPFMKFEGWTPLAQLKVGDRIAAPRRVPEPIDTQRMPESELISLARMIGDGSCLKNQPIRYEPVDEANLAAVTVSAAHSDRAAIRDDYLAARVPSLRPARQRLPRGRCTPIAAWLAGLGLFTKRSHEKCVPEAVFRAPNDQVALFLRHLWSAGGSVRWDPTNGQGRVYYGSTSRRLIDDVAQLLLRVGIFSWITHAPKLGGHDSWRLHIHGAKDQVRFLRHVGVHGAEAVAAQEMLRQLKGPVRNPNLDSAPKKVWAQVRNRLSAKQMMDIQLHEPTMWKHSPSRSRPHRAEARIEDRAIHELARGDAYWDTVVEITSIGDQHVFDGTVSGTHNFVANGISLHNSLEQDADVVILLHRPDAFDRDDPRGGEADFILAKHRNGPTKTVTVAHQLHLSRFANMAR

Protein RecA = biological target: T4, Protein RecA (Mycobacterium tuberculosis, UniProt P9WHJ3); experiment: Fluorescence Cell-Free Homogeneous Dose Retest to Identify Inhibitors of RecA-Intein Splicing Activity. [Related pubchem assays (depositor defined):AID2097, AID2223, AID489010, AID492950]; format: functional
T4 sequence (P9WHJ3 whole entry): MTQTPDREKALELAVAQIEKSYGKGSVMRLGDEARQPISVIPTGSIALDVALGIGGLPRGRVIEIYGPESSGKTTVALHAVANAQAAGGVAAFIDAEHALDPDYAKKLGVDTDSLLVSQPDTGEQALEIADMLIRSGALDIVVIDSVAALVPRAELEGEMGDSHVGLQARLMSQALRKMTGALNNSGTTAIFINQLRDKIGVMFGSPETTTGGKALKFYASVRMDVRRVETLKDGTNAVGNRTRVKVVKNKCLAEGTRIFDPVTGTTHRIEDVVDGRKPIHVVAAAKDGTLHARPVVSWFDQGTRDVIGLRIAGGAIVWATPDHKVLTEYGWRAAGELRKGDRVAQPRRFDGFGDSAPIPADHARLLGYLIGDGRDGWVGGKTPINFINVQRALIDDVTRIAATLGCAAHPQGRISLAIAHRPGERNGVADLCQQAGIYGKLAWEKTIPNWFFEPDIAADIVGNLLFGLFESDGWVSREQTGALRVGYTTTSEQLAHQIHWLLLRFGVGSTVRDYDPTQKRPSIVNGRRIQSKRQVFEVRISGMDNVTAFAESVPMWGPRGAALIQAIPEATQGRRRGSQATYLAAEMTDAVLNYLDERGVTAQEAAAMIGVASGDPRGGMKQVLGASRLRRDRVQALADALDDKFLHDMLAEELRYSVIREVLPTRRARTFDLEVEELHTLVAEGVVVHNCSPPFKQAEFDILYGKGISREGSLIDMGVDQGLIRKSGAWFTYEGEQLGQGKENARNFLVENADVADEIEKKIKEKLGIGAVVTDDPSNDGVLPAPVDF

INS1 = experiment: INS-1E survival protection against cytokine death – cell-based, luminescence, retest, dose response (AID 449756); format: functional; settings: Rattus norvegicus;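 further: cell death triggered by IL-1 beta plus TNF-alpha plus IFN-gamma mixture; protective hits raise ATP signal compared with cytokine alone wells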
[15] = biological target: T5, Sentrin-specific protease 8 (Homo sapiens, UniProt Q96LD8); format: functional
T5 sequence (Q96LD8 whole entry): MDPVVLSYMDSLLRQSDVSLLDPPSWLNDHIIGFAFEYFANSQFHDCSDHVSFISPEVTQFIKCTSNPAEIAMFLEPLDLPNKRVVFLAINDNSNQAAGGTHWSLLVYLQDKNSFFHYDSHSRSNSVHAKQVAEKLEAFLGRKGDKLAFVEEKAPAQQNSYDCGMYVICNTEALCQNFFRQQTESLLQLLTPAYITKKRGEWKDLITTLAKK

[16] = biological target: T5, Sentrin-specific protease 8; format: functional; remark: listed apart in the source
[17] = biological target: DNA repair protein RAD52 homolog (Homo sapiens, UniProt P43351); format: functional, biochemical
Caspase-9 = biological target: T6, Caspase-9 (Homo sapiens, UniProt P55211); experiment: inhibitors of purified CASP9 protease – biochemical, fluorescence, plate reader, cherry-picked samples, selectivity assay for caspase-6 inhibitor project, dose response (AID 743293)
T6 sequence (P55211 whole entry): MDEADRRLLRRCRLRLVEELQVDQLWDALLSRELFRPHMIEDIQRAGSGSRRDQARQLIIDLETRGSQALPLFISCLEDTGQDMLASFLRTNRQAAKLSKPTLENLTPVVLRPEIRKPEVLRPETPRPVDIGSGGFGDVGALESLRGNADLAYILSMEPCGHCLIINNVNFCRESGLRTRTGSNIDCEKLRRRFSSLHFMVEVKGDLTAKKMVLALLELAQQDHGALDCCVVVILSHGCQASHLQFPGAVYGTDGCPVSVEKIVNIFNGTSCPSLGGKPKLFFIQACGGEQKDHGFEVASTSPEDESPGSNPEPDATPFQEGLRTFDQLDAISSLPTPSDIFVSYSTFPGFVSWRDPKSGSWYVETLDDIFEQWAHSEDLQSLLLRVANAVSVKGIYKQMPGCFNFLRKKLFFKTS

Caspase-7 = biological target: T7, Caspase-7 (Homo sapiens, UniProt P55210); experiment: caspase-7 enzyme inhibition, selectivity check – biochemical, DEVD-R110 fluorescence, cherry-pick, selectivity assay for caspase-6 inhibitor project, dose response (AID 743295); format: functional
T7 sequence (P55210 whole entry): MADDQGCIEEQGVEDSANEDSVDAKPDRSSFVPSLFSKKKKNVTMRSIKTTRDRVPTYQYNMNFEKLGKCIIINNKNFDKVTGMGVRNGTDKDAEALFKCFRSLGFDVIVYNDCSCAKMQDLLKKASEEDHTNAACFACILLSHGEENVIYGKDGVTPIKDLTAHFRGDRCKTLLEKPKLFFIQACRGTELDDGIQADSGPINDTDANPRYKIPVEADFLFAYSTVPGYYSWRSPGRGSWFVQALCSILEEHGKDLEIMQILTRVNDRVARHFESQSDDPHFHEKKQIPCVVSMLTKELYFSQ

Caspase-8 = Caspase-8 (Homo sapiens, UniProt Q14790); experiment: inhibitors of purified CASP8 protease – biochemical, Z-IETD-R110 fluorescence, cherry-picked samples, selectivity assay for caspase-6 inhibitor project, dose response (AID 743294)
Chain of Caspase-8 (Q14790 217-374 limits assumed): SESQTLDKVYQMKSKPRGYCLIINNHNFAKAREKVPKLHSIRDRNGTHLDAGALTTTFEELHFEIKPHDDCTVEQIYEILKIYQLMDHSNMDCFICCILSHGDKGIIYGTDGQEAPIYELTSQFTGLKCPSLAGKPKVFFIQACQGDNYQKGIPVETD
Chain of Caspase-8 (Q14790 385-479 limits assumed): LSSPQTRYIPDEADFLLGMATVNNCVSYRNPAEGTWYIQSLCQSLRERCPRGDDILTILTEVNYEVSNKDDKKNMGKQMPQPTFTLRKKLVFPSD

Chain of 5-hydroxytryptamine receptor 5A (P47898 whole entry): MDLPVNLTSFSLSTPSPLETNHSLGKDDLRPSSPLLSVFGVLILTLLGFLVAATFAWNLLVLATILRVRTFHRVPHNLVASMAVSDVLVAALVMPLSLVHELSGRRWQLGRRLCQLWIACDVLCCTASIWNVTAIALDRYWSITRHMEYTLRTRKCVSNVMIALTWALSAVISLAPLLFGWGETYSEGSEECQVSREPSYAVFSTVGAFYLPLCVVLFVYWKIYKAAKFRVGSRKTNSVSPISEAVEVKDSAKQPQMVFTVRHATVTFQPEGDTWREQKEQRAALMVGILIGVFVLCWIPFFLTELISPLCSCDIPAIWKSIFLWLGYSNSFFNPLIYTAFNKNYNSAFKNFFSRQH
Chain of Mu-type opioid receptor (P35372 whole entry): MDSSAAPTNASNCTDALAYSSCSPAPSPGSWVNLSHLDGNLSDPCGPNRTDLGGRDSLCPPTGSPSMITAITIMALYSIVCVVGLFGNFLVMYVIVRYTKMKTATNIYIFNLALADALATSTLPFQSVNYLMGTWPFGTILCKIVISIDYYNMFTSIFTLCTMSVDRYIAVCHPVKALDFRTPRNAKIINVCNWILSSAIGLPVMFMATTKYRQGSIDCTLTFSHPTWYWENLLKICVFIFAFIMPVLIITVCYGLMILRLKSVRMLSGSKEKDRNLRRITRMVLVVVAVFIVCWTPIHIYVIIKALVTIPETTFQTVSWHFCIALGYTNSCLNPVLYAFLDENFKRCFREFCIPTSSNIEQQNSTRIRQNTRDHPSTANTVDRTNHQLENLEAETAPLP
Chain of DNA damage-inducible transcript 3 protein (P35639 whole entry): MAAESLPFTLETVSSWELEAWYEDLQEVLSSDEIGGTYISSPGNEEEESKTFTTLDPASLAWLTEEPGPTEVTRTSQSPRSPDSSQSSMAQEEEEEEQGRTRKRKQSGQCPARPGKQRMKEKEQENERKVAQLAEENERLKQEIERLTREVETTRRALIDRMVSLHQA
Chain of CAAX prenyl protease 2 (Q9Y256 whole entry): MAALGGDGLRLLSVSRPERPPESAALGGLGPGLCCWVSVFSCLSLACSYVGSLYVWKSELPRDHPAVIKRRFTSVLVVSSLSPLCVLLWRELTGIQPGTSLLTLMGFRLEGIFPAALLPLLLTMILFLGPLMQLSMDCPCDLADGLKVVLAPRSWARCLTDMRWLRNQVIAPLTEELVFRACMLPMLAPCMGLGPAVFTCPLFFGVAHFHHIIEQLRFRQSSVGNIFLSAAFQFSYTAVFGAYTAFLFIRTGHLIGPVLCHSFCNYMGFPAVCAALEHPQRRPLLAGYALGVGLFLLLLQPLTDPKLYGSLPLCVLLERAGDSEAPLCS
Chain of Phospholipase A2 (P04054 whole entry): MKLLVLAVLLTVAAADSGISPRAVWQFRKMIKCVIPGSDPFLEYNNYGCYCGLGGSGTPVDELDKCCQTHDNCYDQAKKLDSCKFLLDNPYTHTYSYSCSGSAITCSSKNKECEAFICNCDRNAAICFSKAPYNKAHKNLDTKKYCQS
Chain of Mitogen-activated protein kinase 10 (P53779 whole entry): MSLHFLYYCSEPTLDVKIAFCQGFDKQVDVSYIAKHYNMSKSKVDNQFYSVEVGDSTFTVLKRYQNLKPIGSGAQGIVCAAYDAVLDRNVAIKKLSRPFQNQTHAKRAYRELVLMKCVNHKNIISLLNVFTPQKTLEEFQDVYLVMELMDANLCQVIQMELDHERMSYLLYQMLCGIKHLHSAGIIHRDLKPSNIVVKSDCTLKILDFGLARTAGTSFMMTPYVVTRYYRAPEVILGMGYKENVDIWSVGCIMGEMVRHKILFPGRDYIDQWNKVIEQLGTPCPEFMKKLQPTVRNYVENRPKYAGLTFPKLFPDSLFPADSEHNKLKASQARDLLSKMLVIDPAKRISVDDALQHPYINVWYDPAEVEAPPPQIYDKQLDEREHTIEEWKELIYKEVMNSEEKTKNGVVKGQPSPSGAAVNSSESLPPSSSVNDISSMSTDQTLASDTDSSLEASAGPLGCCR
Chain of DNA repair protein RAD52 homolog (P43351 whole entry): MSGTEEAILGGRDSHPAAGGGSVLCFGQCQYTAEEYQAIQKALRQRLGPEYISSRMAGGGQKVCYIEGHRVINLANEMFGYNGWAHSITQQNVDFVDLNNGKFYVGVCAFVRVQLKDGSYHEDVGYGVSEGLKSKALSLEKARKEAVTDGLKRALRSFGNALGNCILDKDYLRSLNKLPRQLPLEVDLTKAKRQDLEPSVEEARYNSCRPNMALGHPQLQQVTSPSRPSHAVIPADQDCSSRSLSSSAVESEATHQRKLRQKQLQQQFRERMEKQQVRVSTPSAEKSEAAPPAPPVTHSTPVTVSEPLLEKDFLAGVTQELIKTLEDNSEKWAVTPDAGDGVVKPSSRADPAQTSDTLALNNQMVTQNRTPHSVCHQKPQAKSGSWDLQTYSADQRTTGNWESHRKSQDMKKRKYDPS
Chain of Delta-type opioid receptor (P41143 whole entry): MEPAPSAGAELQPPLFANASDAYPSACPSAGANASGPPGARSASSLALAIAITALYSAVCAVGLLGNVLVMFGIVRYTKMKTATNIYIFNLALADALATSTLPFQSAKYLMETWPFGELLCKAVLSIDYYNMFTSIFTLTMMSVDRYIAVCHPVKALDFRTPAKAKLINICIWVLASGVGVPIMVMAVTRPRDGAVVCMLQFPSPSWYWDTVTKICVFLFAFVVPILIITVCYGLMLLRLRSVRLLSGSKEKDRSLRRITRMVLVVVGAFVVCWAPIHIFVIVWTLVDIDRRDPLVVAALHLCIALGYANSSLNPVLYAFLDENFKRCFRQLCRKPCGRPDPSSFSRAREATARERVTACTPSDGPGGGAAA
Chain of X-box-binding protein 1 (P17861 whole entry): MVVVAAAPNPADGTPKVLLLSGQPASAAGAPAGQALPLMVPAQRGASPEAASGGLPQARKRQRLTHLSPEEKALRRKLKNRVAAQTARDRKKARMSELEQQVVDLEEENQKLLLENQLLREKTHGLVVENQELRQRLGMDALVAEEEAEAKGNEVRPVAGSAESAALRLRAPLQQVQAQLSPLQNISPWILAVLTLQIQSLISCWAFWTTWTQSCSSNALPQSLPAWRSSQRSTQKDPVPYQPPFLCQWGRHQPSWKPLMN

Cc1csc(NC(=O)c2c(-c3c(Cl)cccc3Cl)noc2C)n1
AC50 (Escherichia coli): 32.8 µM (active)

Cc1ccc2nc(Cc3ccc(N)cc3)oc2c1
IC50 [1]: 49.9 µM (not active)
AC50 (A-375 [2]): > 35 µM (active)
AC50 (A-375 [3]): > 35 µM (active)

O=C(N/N=C/c1cn(Cc2ccccc2)c2ccccc12)c1cc(O)cc(O)c1
AC50 (CAAX prenyl protease 2): 12.6 µM (active)
AC50 (Caspase-6): 3.09 µM (active)

Clc1ccc2c(N/N=C/c3ccccc3Br)ccnc2c1
CC50 (Vero): 7.23 µM (active)
EC50 [4]: 1.02 µM (active)
EC50 [5]: > 60 µM (not active)
Absolute IC50 (CHOP) [6]: 10 µM
IC50 (Cysteine protease ATG4B): 3.17 µM (active)
Absolute IC50 (XBP1) (X-box-binding protein 1): 10 µM
IC50 (Phospholipase A2): 1.75 µM (active)
EC50 [7]: > 92.5 µM (inactive)
EC50 (Mu-type opioid receptor): > 92.5 µM (inactive)
EC50 [8]: > 92.5 µM (inactive)
AC50 [9]: 39.6 µM (active)
AC50 [10]: 7.49 µM (active)
AC50 [11]: 16 µM (active)

COc1cc(NC(C)CCCN)c2ncccc2c1 (configuration not stated) [PRIMAQUINE PHOSPHATE]
CC50 [12]: > 40 µM (active)
IC50 (Jurkat): 38 µM (inactive)
IC50 [13]: > 80 µM (inactive)
AC50 [14]: 9.98 µM (active)
EC50 (Protein RecA): 1.17 µM (active)
AC50 (INS1): 3.83 µM (active)
IC50 [15]: 987 nM (active)
IC50 [16]: 935 nM (active)
AC50 [17]: 5.55 µM (active)
AC50 (Caspase-6): 1.9 µM (active)
AC50 (Caspase-9): > 70 µM (inactive)
AC50 (Caspase-7): 4.07 µM (active)
AC50 (Caspase-8): 57.9 µM (active)
